Results taken from patent publication US20230172958A1, “USE OF COMPOUNDS FOR TREATING VIRAL INFECTIONS” (priority 2020, published 2023).
Like-named read-outs stand apart in the source and are kept apart here.

Tests used:
Type in all cases: cell-based
SARS-CoV-2 [1] = experiment: Anti SARS-CoV-2 IC50 estimation by qRT-PCR in VeroE6 cells; settings: Severe acute respiratory syndrome coronavirus 2, Vero C1008, 48 h
[2] = Cytotoxicity by Hoechst 33342 / Sytox orange staining; settings: African green monkey, Vero E6 cells
Experimental: The assay was done in a 96 well plate format in 3 wells for each sample. 1×10e4 Vero E6 cells were plated per well and incubated at 37° C. overnight for monolayer formation. Next day, cells were incubated with the test substance (TS) at the indicated concentration with final DMSO concentration being 0.5%. The Control cells were incubated with 0.5% DMSO only. 24 and 48 hours later, cells were stained with Hoechst 33342 and Sytox orange dye. Images were taken at 10×, 16 images per well, which covers 90% of the well area using ImageXpress Microconfocal (Molecular Devices). Hoechst 33342 nucleic acid stain is a popular cell-permanent nuclear counterstain that emits blue fluorescence when bound to dsDNA. It stains all the live and dead cells. Sytox orange dye stains the nucleic acid in the cells with compromised membranes. This stain is an indicator of cell death. First, the software will count total number of cells in the Hoechst image. In the Sytox image, it will count, among Hoechst positive cells, how many cells are positive for Sytox.

SARS-CoV-2 [3] = experiment: Antiviral screening by qRT-PCR in VeroE6 cells

CCC(CC)COC(=O)[C@H](C)N[P@](=O)(OC[C@H]1O[C@@](C#N)(c2ccc3c(N)ncnn23)[C@H](O)[C@@H]1O)Oc1ccccc1 [Remdesivir, reference compound]
IC50 (SARS-CoV-2 [1]; read-out: IC50 value (μM) E gene): 0.15 µM
IC50 (SARS-CoV-2 [1]; read-out: IC50 value (μM) N gene): 0.11 µM
viability at 24 h, 10 µM ([2]; 24 hours, read-out: % Cell viability 24 hours): 99.2%
viability at 48 h, 10 µM ([2]; 48 hours, read-out: % Cell viability 48 hours): 94.4%
inhibition at 10 µM (SARS-CoV-2 [3]; Severe acute respiratory syndrome coronavirus 2, Vero C1008, 24 h, read-out: % inhibition of virus replication 24 hours post infection E): 82.4%
inhibition at 10 µM (SARS-CoV-2 [3]; Severe acute respiratory syndrome coronavirus 2, Vero C1008, 24 h, read-out: % inhibition of virus replication 24 hours post infection N): 80.3%
inhibition at 10 µM (SARS-CoV-2 [3]; Severe acute respiratory syndrome coronavirus 2, Vero C1008, 48 h, read-out: % inhibition of virus replication 48 hours post infection E): 99.8%
inhibition at 10 µM (SARS-CoV-2 [3]; Severe acute respiratory syndrome coronavirus 2, Vero C1008, 48 h, read-out: % inhibition of virus replication 48 hours post infection N): 99.9%
